This data set in a line: Compound solubility in water. The data set is classed as physicochemical.

Converted amounts (≈) assume the structure as drawn.

For `Cc1cc2ncc(C(=O)NC3CCCc4ccccc43)n2nc1Cl` (centres unmarked), the solubility was determined as 3.6 µg/mL (≈ 10.6 µM).
To `CCC(NC(=O)c1cnc2cc(C)c(Cl)nn12)c1ccccc1` (centres unmarked) belongs 14.6 µg/mL (≈ 44.5 µM); to `O=C(Nc1ccc2c(c1)CCC2)c1cnc2ccc(Cl)nn12`, 0.7 µg/mL (≈ 2.24 µM).
`O=C(NC1CCCc2ccccc21)c1cnc2ccc(Cl)nn12` (centres unmarked) registered a solubility of 17.5 µg/mL (≈ 53.7 µM).
With `Cc1cc(-c2ccc(F)cc2C#N)nn2c(C(=O)N[C@@H](C)C3CC3)cnc12`, the solubility turned out to be 2.6 µg/mL (≈ 7.15 µM).
To `Cc1cc(C)c2cnc(C(=O)NC(C)(C)C3CC3)n2n1` belongs 24 µg/mL (≈ 88.1 µM).
To `Cc1cc(-c2ccc(F)cc2)nn2c(C(=O)NC(C)(C)C3CC3)ncc12` belongs 1.2 µg/mL (≈ 3.41 µM); to `Cc1cc(-c2ccc(F)cc2)nn2c(C(=O)N[C@@H](C)C3CC3)ncc12`, 6.9 µg/mL (≈ 20.4 µM); to `Cc1cc(-c2ccc(F)cc2)nn2c(C(=O)NC(C3CC3)C(F)(F)F)ncc12` (centres unmarked), 0.2 µg/mL (≈ 0.51 µM).
Regarding `Cc1cc(-c2cccc(F)c2)nn2c(C(=O)NC(C)(C)C3CC3)ncc12`, the concentration in solution (solubility) was 8 µg/mL (≈ 22.7 µM).
With `Cc1cc(-c2cccc(F)c2)nn2c(C(=O)NC(C)C(F)(F)F)ncc12` (centres unmarked), the solubility was 3 µg/mL (≈ 8.19 µM).
For `Cc1cc(-c2ccc(F)cc2)nn2c(C(=O)NC(C)C(F)(F)F)ncc12` (centres unmarked) the value was 3.2 µg/mL (≈ 8.74 µM); for `Cc1cc(-c2ccc(F)cc2)nn2c(C(=O)N[C@@H](C)C3CC3)nnc12`, 1 µg/mL (≈ 2.95 µM).
For `Cc1cc(-c2cccnc2)nc2c(C(=O)NC(C3CC3)C(F)(F)F)nsc12` (centres unmarked) the value was 0.3 µg/mL (≈ 0.765 µM).
For `Cc1cc(-c2ccccn2)nc2c(C(=O)NC(C3CC3)C(F)(F)F)nsc12` (centres unmarked) the value was 0.7 µg/mL (≈ 1.78 µM); for `Cc1cc(-c2cccc(C(N)=O)c2)nc2c(C(=O)NC(C3CC3)C(F)(F)F)nsc12` (centres unmarked), 1.4 µg/mL (≈ 3.22 µM).
Molecule `Cc1cc(-c2cccc3ocnc23)nc2c(C(=O)NC(C3CC3)C(F)(F)F)nsc12` (centres unmarked) displayed a solubility of 1.1 µg/mL (≈ 2.54 µM).
In turn, `Cc1cc(C)c2scc(C(=O)NC(C3CC3)C(F)(F)F)c2n1` (centres unmarked) displayed a solubility of 0.1 µg/mL (≈ 0.305 µM).
To `Cc1cc(-c2cccnc2)nc2c(C(=O)NC(C3CC3)C(F)(F)F)csc12` (centres unmarked) belongs 0.5 µg/mL (≈ 1.28 µM); to `Cc1cc(-c2cccnc2)nc2c(C(=O)NC(C)C3CC3)csc12` (centres unmarked), 1.4 µg/mL (≈ 4.15 µM); to `Cc1cc(-c2cccc(C(N)=O)c2)nc2c(C(=O)NC(C3CC3)C(F)(F)F)csc12` (centres unmarked), 0.4 µg/mL (≈ 0.923 µM).
For `Cc1cc(-c2cccc(C#N)c2)nn2c(C(=O)NC(C3CC3)C(F)(F)F)cnc12` (centres unmarked) the value was 0.2 µg/mL (≈ 0.501 µM); for `Cc1cc(N2CCC(F)(F)C2)nn2c(C(=O)NC(C3CC3)C(F)(F)F)cnc12` (centres unmarked), 8.2 µg/mL (≈ 20.3 µM); for `Cc1cc(-c2occc2C#N)nn2c(C(=O)NC(C3CC3)C(F)(F)F)cnc12` (centres unmarked), 0.7 µg/mL (≈ 1.8 µM).
For `Cc1cc(-c2ccc3ocnc3c2)nn2c(C(=O)N[C@@H](C3CC3)C(F)(F)F)cnc12` the value was 0.5 µg/mL (≈ 1.2 µM).
The molecule `Cc1cc(-c2ccc3ocnc3c2)nn2c(C(=O)N[C@H](C)C(F)(F)F)cnc12` showed a solubility of 1 µg/mL (≈ 2.57 µM). Compared with the last molecule, the solubility is about 2-fold higher.
For `Cc1cc(-c2ccc3ocnc3c2)nn2c(C(=O)N[C@@H](C)C(F)(F)F)cnc12` the value was 1.2 µg/mL (≈ 3.08 µM).
In the case of `Cc1cc(-c2ccc(F)cc2C#N)nn2c(C(=O)N[C@@H](C3CC3)C(F)(F)F)cnc12`, the solubility is 1.2 µg/mL (≈ 2.88 µM).
To `Cc1cc(-c2ccc(F)cc2C#N)nn2c(C(=O)N[C@H](C)C(F)(F)F)cnc12` belongs 1.9 µg/mL (≈ 4.86 µM); to `Cc1cc(-c2ccc(F)cc2C#N)nn2c(C(=O)N[C@@H](C)C(F)(F)F)cnc12`, 1.9 µg/mL (≈ 4.86 µM).
For `Cc1cc(-c2ccc(F)cc2C#N)nn2c(C(=O)N[C@H](C)C3CC3)cnc12` the value was 2.3 µg/mL (≈ 6.33 µM).
With `Cc1cc(N2CCN(C(C)C)C2=O)nn2c(C(=O)NC(C3CC3)C(F)(F)F)cnc12` (centres unmarked), the solubility was found to be 18.3 µg/mL (≈ 43.1 µM).
For `Cc1cc(-c2cccc(Cl)n2)nn2c(C(=O)NC(C)C(F)(F)F)cnc12` (centres unmarked) the value was 3.5 µg/mL (≈ 9.12 µM).
To `Cc1cc(-c2cc(C)c3ncc(C(=O)N[C@H](C4CC4)C(F)(F)F)n3n2)sn1` belongs 3.6 µg/mL (≈ 9.1 µM); to `Cc1cc(-c2cncc(Cl)c2)nn2c(C(=O)N[C@H](C3CC3)C(F)(F)F)cnc12`, 0.3 µg/mL (≈ 0.732 µM).

The record behind these values is patent US9868742B2, “Substituted imidazo[1,2-b]pyridazines, substituted imidazo[1,5-b] pyridazines, related compounds, and their use in the treatment of medical disorders” (Lysosomal Therapeutics Inc., priority 2016, dated 2018).
